From ChEMBL document CHEMBL2417397, “Synthesis and biological properties of new N-Mannich bases derived from 3-methyl-3-phenyl- and 3,3-dimethyl-succinimides. Part V” (Eur J Med Chem, 2013)
Active and inactive are the calls of the source. No cut-off for these calls is given here.

Experiments:
[1] = organism: Rattus norvegicus; assay: Protective index, ratio of TD50 for Sprague-Dawley albino rat by rotarod test to ED50 for Sprague-Dawley albino rat; assay type: functional
[2] = Neurotoxicity in po dosed Sprague-Dawley albino rat at 30 mg/kg, po after 0.25 to 4 hrs by rotarod test; assay type: toxicity, organism-based; parameters: dose 30 mg/kg, route oral; conditions: in vivo
[3] = test system: Rattus norvegicus; assay: Anticonvulsant activity in po dosed Sprague-Dawley albino rat assessed as protection against maximal electroshock-induced seizures after 0.25 to 4 hrs; assay type: functional
[4] = Neurotoxicity in ip dosed CF-1 albino mouse after 0.5 hrs by rotarod test; assay type: toxicity, organism-based; conditions: CF-1, mouse, in vivo
[5] = test system: Mus musculus; assay: Anticonvulsant activity in CF-1 albino mouse assessed as protection against maximal electroshock-induced seizures at 300 mg/kg, ip after 0.5 hrs; assay type: functional, organism-based; parameters: dose 300 mg/kg
[6] = test system: Mus musculus; assay: Anticonvulsant activity in CF-1 albino mouse assessed as protection against maximal electroshock-induced seizures at 300 mg/kg, ip after 4 hrs; assay type: functional, organism-based; parameters: dose 300 mg/kg
[7] = test system: Mus musculus; assay: Neurotoxicity in CF-1 albino mouse at 300 mg/kg, ip after 4 hrs by rotarod test; assay type: toxicity, organism-based; parameters: dose 300 mg/kg, route intraperitoneal; conditions: in vivo
[8] = test system: Mus musculus; assay: Anticonvulsant activity in ip dosed CF-1 albino mouse assessed as protection against maximal electroshock-induced seizures after 4 hrs; assay type: functional
[9] = Neurotoxicity in ip dosed CF-1 albino mouse after 4 hrs by rotarod test; assay type: toxicity, organism-based; conditions: CF-1, mouse, in vivo
[10] = test system: Mus musculus; assay: Neurotoxicity in CF-1 albino mouse at 300 mg/kg, ip after 0.5 hrs by rotarod test; assay type: toxicity, organism-based; parameters: dose 300 mg/kg, route intraperitoneal; conditions: in vivo
[11] = test system: Rattus norvegicus; assay: Anticonvulsant activity in Sprague-Dawley albino rat assessed as protection against maximal electroshock-induced seizures at 30 mg/kg, po after 1 hr; assay type: functional
[12] = test system: Rattus norvegicus; assay: Anticonvulsant activity in Sprague-Dawley albino rat assessed as protection against maximal electroshock-induced seizures at 30 mg/kg, po after 4 hrs; assay type: functional
[13] = test system: Rattus norvegicus; assay: Anticonvulsant activity in Sprague-Dawley albino rat assessed as protection against maximal electroshock-induced seizures at 30 mg/kg, po after 2 hrs; assay type: functional
[14] = test system: Rattus norvegicus; assay: Neurotoxicity in Sprague-Dawley albino rat assessed as motor impairment at 30 mg/kg, po; assay type: toxicity, organism-based; parameters: dose 30 mg/kg, route oral; conditions: in vivo
[15] = test system: Rattus norvegicus; assay: Anticonvulsant activity in Sprague-Dawley albino rat assessed as protection against maximal electroshock-induced seizures at 30 mg/kg, po after 0.5 hrs; assay type: functional
[16] = test system: Rattus norvegicus; assay: Anticonvulsant activity in Sprague-Dawley albino rat assessed as protection against maximal electroshock-induced seizures at 30 mg/kg, po after 0.25 hrs; assay type: functional
[17] = test system: Vibrio harveyi; assay: Induction of mutagenecity in Vibrio harveyi BB7XM; assay type: organism-based; conditions: in vivo
[18] = test system: Vibrio harveyi; assay: Antimutagenic activity in Vibrio harveyi BB7X assessed as inhibition of 4-nitroquinoline-N-oxide-induced mutation; assay type: functional
[19] = test system: Vibrio harveyi; assay: Induction of mutagenecity in Vibrio harveyi BB7X; assay type: organism-based; conditions: in vivo
[20] = test system: Vibrio harveyi; assay: Antimutagenic activity in Vibrio harveyi BB7M assessed as inhibition of 4-nitroquinoline-N-oxide-induced mutation; assay type: functional
[21] = test system: Vibrio harveyi; assay: Antimutagenic activity in Vibrio harveyi BB7XM assessed as inhibition of 4-nitroquinoline-N-oxide-induced mutation; assay type: functional
[22] = test system: Vibrio harveyi; assay: Antimutagenic activity in Vibrio harveyi BB7 assessed as inhibition of 4-nitroquinoline-N-oxide-induced mutation; assay type: functional
[23] = test system: Vibrio harveyi; assay: Induction of mutagenecity in Vibrio harveyi BB7M; assay type: organism-based; conditions: in vivo
[24] = test system: Vibrio harveyi; assay: Induction of mutagenecity in Vibrio harveyi BB7; assay type: organism-based; conditions: in vivo
[25] = test system: Mus musculus; assay: Anticonvulsant activity in CF-1 albino mouse assessed as time of peak effect for protection against maximal electroshock-induced seizures at 30 to 300 mg/kg, ip; assay type: functional; conditions: dose mg/kg 30-300; route intraperitoneal
[26] = test system: Rattus norvegicus; assay: Anticonvulsant activity in Sprague-Dawley albino rat assessed as time of peak effect for protection against maximal electroshock-induced seizures at 30 mg/kg, po; assay type: functional

O=C1CC2(CCc3ccccc3C2)C(=O)N1CN1CCN(c2cccc(Cl)c2)CC1 (stereo unspecified)
Ratio TD50/ED50 [1]: >25.69
TD50 [2]: > 400 mg/kg
ED50 [3]: 15.6 mg/kg

Cc1cccc(N2CCN(CN3C(=O)CC(C)(C)C3=O)CC2)c1
TD50 at 0.5 h [4]: 300 mg/kg
Activity [5]: inactive
Activity [6]: inactive
Activity [7]: Non-toxic

CC1(C)CC(=O)N(CN2CCN(c3ccccc3F)CC2)C1=O
MED50 [8]: 100 mg/kg
TD50 at 0.5 h [4]: 300 mg/kg
Activity [5]: inactive
Activity [7]: Non-toxic

CC1(C)CC(=O)N(CN2CCN(c3ccc(F)cc3)CC2)C1=O
TD50 at 0.5 h [4]: 300 mg/kg
Activity [5]: inactive
Activity [6]: inactive
Activity [7]: Non-toxic

CC1(c2ccccc2)CC(=O)N(CN2CCN(c3cccc(C(F)(F)F)c3)CC2)C1=O (stereo unspecified)
MED50 [8]: 100 mg/kg
TD50 at 4 h [9]: 300 mg/kg
Activity [10]: Non-toxic
Activity [5]: inactive

COc1cccc(N2CCN(CN3C(=O)CC(C)(C)C3=O)CC2)c1
MED50 [8]: 100 mg/kg
TD50 at 0.5 h [4]: 300 mg/kg
Activity [11]: inactive
Activity [12]: inactive
Activity [13]: inactive
Activity [14]: Non-toxic
Activity [15]: 25%
Activity [5]: inactive
Activity [16]: inactive
Activity [7]: Non-toxic

CC1(C)CC(=O)N(CN2CCN(c3ccc(Cl)cc3)CC2)C1=O
TD50 at 0.5 h [4]: 300 mg/kg
Activity [5]: inactive
Activity [6]: inactive
Activity [7]: Non-toxic

CC1(C)CC(=O)N(CN2CCN(c3ccccc3Cl)CC2)C1=O
TD50 at 0.5 h [4]: 100 mg/kg
Activity [5]: inactive
Activity [6]: inactive
Activity [7]: Non-toxic

COc1ccccc1N1CCN(CN2C(=O)CC(C)(C)C2=O)CC1
TD50 at 0.5 h [4]: 300 mg/kg
Activity [5]: inactive
Activity [6]: inactive
Activity [7]: Non-toxic

CC1(C)CC(=O)N(CN2CCN(c3cccc(Cl)c3)CC2)C1=O
TD50 at 0.5 h [4]: 300 mg/kg
TD50 at 4 h [9]: 300 mg/kg
Activity [5]: inactive
Activity [6]: inactive

CC1(c2ccccc2)CC(=O)N(CN2CCN(c3ccc(Cl)cc3)CC2)C1=O (stereo unspecified)
MED50 [8]: 100 mg/kg
Activity [17]: Non-toxic
inhibition (INH) [18]: 0%
Activity [11]: 75%
Activity [19]: Non-toxic
Activity [12]: 75%
Activity [13]: 75%
Activity [14]: Non-toxic
Activity [15]: inactive
inhibition (INH) [20]: 43%
inhibition (INH) [21]: 43%
Activity [10]: Non-toxic
Activity [5]: inactive
inhibition (INH) [22]: 6%
Activity [23]: Non-toxic
Activity [24]: Non-toxic
Activity [16]: inactive
Activity [7]: Non-toxic

O=C1CC(c2ccccc2)(c2ccccc2)C(=O)N1CN1CCN(c2cccc(C(F)(F)F)c2)CC1
Ratio TD50/ED50 [1]: <13.2
TD50 [2]: < 400 mg/kg
ED50 [3]: 30 mg/kg

CC1(C)CC(=O)N(CN2CCN(c3ccc(Cl)c(Cl)c3)CC2)C1=O
Activity [10]: Non-toxic
Activity [5]: inactive
Activity [6]: inactive
Activity [7]: Non-toxic

Cc1ccccc1N1CCN(CN2C(=O)CC(C)(C)C2=O)CC1
TD50 at 0.5 h [4]: 300 mg/kg
TD50 at 4 h [9]: 300 mg/kg
Activity [5]: inactive
Activity [6]: inactive

O=C1CC(c2ccccc2Br)C(=O)N1CN1CCN(c2ccc(F)cc2)CC1 (stereo unspecified)
TD50 [2]: 62.4 mg/kg
ED50 [3]: 7.4 mg/kg

CC1(C)CC(=O)N(CN2CCN(c3ccccc3)CC2)C1=O
MED50 [8]: 100 mg/kg
TD50 at 0.5 h [4]: 300 mg/kg
TD50 at 4 h [9]: 300 mg/kg
Activity [5]: inactive

CCC1(C)CC(=O)NC1=O (stereo unspecified) [ETHOSUXIMIDE]
Activity [17]: Non-toxic
inhibition (INH) [18]: 0%
Activity [19]: Non-toxic
inhibition (INH) [20]: 43%
inhibition (INH) [21]: 43%
inhibition (INH) [22]: 30%
Activity [23]: Non-toxic
Activity [24]: Non-toxic

CC1(c2ccccc2)CC(=O)N(CN2CCN(c3ccccc3Cl)CC2)C1=O (stereo unspecified)
Activity [17]: Non-toxic
inhibition (INH) [18]: 0%
Activity [19]: Non-toxic
inhibition (INH) [20]: 47%
inhibition (INH) [21]: 49%
Activity [10]: Non-toxic
Activity [5]: inactive
inhibition (INH) [22]: 3%
Activity [23]: Non-toxic
Activity [24]: Non-toxic
Activity [6]: inactive
Activity [7]: Non-toxic

CC1(c2ccccc2)CC(=O)N(CN2CCN(c3ccccc3)CC2)C1=O (stereo unspecified)
MED50 [8]: 100 mg/kg
Activity [17]: Non-toxic
inhibition (INH) [18]: 0%
Activity [19]: Non-toxic
inhibition (INH) [20]: 38%
inhibition (INH) [21]: 40%
Activity [10]: Non-toxic
Activity [5]: inactive
inhibition (INH) [22]: 28%
Activity [23]: Non-toxic
Activity [24]: Non-toxic
Activity [7]: Non-toxic

CC1(C)CC(=O)N(CN2CCN(c3cccc(C(F)(F)F)c3)CC2)C1=O
MED50 [8]: 30 mg/kg
TD50 at 0.5 h [4]: 300 mg/kg
Activity [11]: 25%
TD50 at 4 h [9]: 300 mg/kg
Activity [12]: Active
Activity [13]: 50%
Activity [14]: Non-toxic
Activity [15]: 75%
Activity [5]: inactive
Activity [16]: 25%

O=C1NC(=O)C(c2ccccc2)(c2ccccc2)N1 [PHENYTOIN]
Activity [11]: 75%
Ratio TD50/ED50 [1]: >3.6
TD50 [2]: > 100 mg/kg
Activity [12]: 75%
Activity [13]: 75%
Activity [15]: Active
Activity [16]: 25%
Time [25]: 1 h
Time [26]: 2 h

CC1(c2ccccc2)CC(=O)N(CN2CCN(c3ccccc3F)CC2)C1=O (stereo unspecified)
MED50 [8]: 100 mg/kg
Activity [17]: Non-toxic
TD50 at 0.5 h [4]: 300 mg/kg
inhibition (INH) [18]: 0%
Activity [19]: Non-toxic
TD50 at 4 h [9]: 300 mg/kg
inhibition (INH) [20]: 57%
inhibition (INH) [21]: 35%
Activity [5]: inactive
inhibition (INH) [22]: 25%
Activity [23]: Non-toxic
Activity [24]: Non-toxic

Cc1ccccc1N1CCN(CN2C(=O)CC(C)(c3ccccc3)C2=O)CC1 (stereo unspecified)
Activity [17]: Toxic
TD50 at 0.5 h [4]: 300 mg/kg
Activity [19]: Non-toxic
Activity [5]: inactive
Activity [23]: Toxic
Activity [24]: Non-toxic
Activity [6]: inactive
Activity [7]: Non-toxic
